Values after ≈ are worked out from the molar mass of the structure shown.
tested on: Staphylococcus aureus; assay: Minimum inhibitory concentration required to inhibit Staphylococcus aureus ATCC 29213 cell growth; format: functional

Compared with `CC(C)C(=O)C(=O)NCCc1c[nH]c2ccccc12`, `CCC(C)C(=O)C(=O)NCCc1c[nH]c2ccccc12` (stereo unspecified) is 4.3-fold lower in MIC: 3 µg/mL (≈ 11.6 µM) for the first, 0.7 µg/mL (≈ 2.57 µM) for the second.

First: CC(C)CC(=O)C(=O)NCCc1c[nH]c2ccccc12
Second: CCC(=O)C(=O)NCCc1c[nH]c2ccccc12
The MIC of the first is 140-fold lower: 0.7 µg/mL (≈ 2.57 µM) for the first, 100 µg/mL (≈ 409 µM) for the second.

Going from `CCC(C)C(=O)C(=O)OCCc1c[nH]c2ccccc12` (stereo unspecified) to `CCC(C)C(O)C(=O)NCCc1c[nH]c2ccccc12` (stereo unspecified), the MIC rises from 25 µg/mL (≈ 91.5 µM) to over 100 µg/mL.

Going from `CC(=O)C(=O)NCCc1c[nH]c2ccccc12` to `CCC(C)/C(=N\OC)C(=O)NCCc1c[nH]c2ccccc12` (stereo unspecified), the MIC rises from 100 µg/mL (≈ 434 µM) to over 100 µg/mL.

`CCC(C)C(=O)C(=O)NCCc1c[nH]c2ccc(C)cc12` (stereo unspecified) and `CCC(C)C(=O)C(=O)NCCc1c[nH]c2ccc(OC)cc12` (stereo unspecified) are the same in MIC: 3 µg/mL (≈ 10.5 µM) for the first, 3 µg/mL (≈ 9.92 µM) for the second.

`CCC(C)C(=O)C(=O)NCCc1c[nH]c2cc(F)ccc12` (stereo unspecified) gave an MIC of 0.7 µg/mL (≈ 2.41 µM).
